Key:
Format in all cases: physicochemical
[1] = Polymorph screening with liquid assisted grinding (LAG), XRPD outcome
Description: 30 mg of amorphous 5-(3,4-difluorobenzyl)-8-((1r,4r)-4-methylcyclohexyl)-6,9-dioxo-2,5,8-triazaspirol[3.5]nonane-2-carbaldehyde was wetted with solvent (5 μL). Two grinding beads (3 mm diameter) were added and the samples were ground for 2 hours at 500 rpm using a planetary Fritsch Mill (Pulverisette 6). After grinding all solids were analysed by XRPD.
Gums were stored at ambient conditions. Gums and samples containing brittle material were dried in-vacuo at R. T. in a vacuum oven overnight (ca. 200 mbar). Observations were recorded and the samples were further dried in-vacuo at R. T. in a vacuum oven overnight (ca. 5 mbar). Where gums still persisted, the samples were further dried in-vacuo at R. T. in a vacuum oven (ca. 5 mbar) for 3 days. The observations and XRPD analysis are provided in Table 5-G. Further treatment details of gums and brittle materials are summarized in Table 5-H.

[2] = Short-term static storage stability of the solid (XRPD, HPLC)
Description: Purity analysis was performed on an Agilent HP1100/Infinity 111260 series system equipped with a diode array detector and using OpenLAB software. The full method details are provided below.
For short-term (8 days or fewer) stability experiments, solid material was placed into open vials at elevated storage conditions, unless otherwise stated. These conditions were achieved using saturated salt solutions at specific temperatures within sealed containers. Storage containers were pre-equilibrated prior to input of samples.

[3] = Competitive slurry experiments between Form I and Form II; settings: competitive slurry
Excerpt: The results of the competitive slurry experiments are provided below in Table 6.

[4] = Storage at 40° C./75% RH for 7 days

C[C@H]1CC[C@H](N2CC(=O)N(Cc3ccc(F)c(F)c3)C3(CN(C=O)C3)C2=O)CC1
XRPD ([1]; LAG gum/brittle material after drying in-vacuo, solvent EtOH/water 97:3 v/v): Form II
XRPD ([1]; LAG of amorphous material, solvent 1,4-dioxane/water 99:1 v/v): Form II
XRPD ([1]; LAG of amorphous material, solvent 1-PrOH/water 98:2 v/v): Form I
XRPD ([1]; LAG of amorphous material, solvent 15% v/v water in 1-PrOH): Form II
XRPD ([1]; LAG of amorphous material, solvent 15% v/v water in 2-PrOH): Form II
XRPD ([1]; LAG of amorphous material, solvent 15% v/v water in DMSO): Form I
XRPD ([1]; LAG of amorphous material, solvent 15% v/v water in EtOH): Form II
XRPD ([1]; LAG of amorphous material, solvent 15% v/v water in MeOH): Form II
XRPD ([1]; LAG of amorphous material, solvent 15% v/v water in acetone): Form I
XRPD ([1]; LAG of amorphous material, solvent 50% v/v water in 1-PrOH): Form II
XRPD ([1]; LAG of amorphous material, solvent 50% v/v water in DMSO): Form I
XRPD ([1]; LAG of amorphous material, solvent 50% v/v water in EtOH): Form I
XRPD ([1]; LAG of amorphous material, solvent 50% v/v water in acetone): Amorphous
XRPD ([1]; LAG of amorphous material, solvent 80% v/v water in 2-BuOH): Form I
XRPD ([1]; LAG of amorphous material, solvent 85% v/v water in 2-PrOH): Form I
XRPD ([1]; LAG of amorphous material, solvent 85% v/v water in acetone): Amorphous
XRPD ([1]; LAG of amorphous material, solvent 95% v/v water in 2-BuOH): Form I
XRPD ([1]; LAG of amorphous material, solvent Acetone/water 99:1 v/v): Form II
XRPD ([1]; LAG of amorphous material, solvent Acetonitrile/water 1:1 v/v): Form II
XRPD ([1]; LAG of amorphous material, solvent MeOH/water 97:3 v/v): Form II

C[C@H]1CC[C@H](N2CC(=O)N(Cc3ccc(F)c(F)c3)C3(CN(C=O)C3)C2=O)CC1 [Form I, 5-(3,4-difluorobenzyl)-8-((1r,4r)-4-methylcyclohexyl)-6,9-dioxo-2,5,8-triazaspiro[3.5]nonane-2-carbaldehyde]
HPLC purity ([2]; Before Storage): 96.3%
XRPD ([2]; Before Storage): Form I
XRPD ([2]; Storage at 25° C./97% RH for 7 days): Unchanged by XRPD
XRPD [2, 4]: Unchanged by XRPD

C1COCCO1.C[C@H]1CC[C@H](N2CC(=O)N(Cc3ccc(F)c(F)c3)C3(CN(C=O)C3)C2=O)CC1 [Form III, 5-(3,4-difluorobenzyl)-8-((1r,4r)-4-methylcyclohexyl)-6,9-dioxo-2,5,8-triazaspiro[3.5]nonane-2-carbaldehyde 1,4-dioxane solvate]
XRPD [2, 4]: converted to crystalline Form II

C[C@H]1CC[C@H](N2CC(=O)N(Cc3ccc(F)c(F)c3)C3(CN(C=O)C3)C2=O)CC1 [Forms I and II]
XRPD ([3]; EtOAc, 5 °C): Form II
XRPD ([3]; EtOAc/cyclohexane (50:50 v/v), 5 °C): Form II
XRPD ([3]; EtOAc/cyclohexane (50:50 v/v), 50 °C): Form II
XRPD ([3]; EtOAc/cyclohexane (85:15 v/v), 5 °C): Form II
XRPD ([3]; EtOAc/cyclohexane (85:15 v/v), 50 °C): Form II
XRPD ([3]; EtOH, 5 °C): Form II
XRPD ([3]; EtOH, 50 °C): Form II
XRPD ([3]; EtOH/water (15/85 v/v), 50 °C): Form II
XRPD ([3]; EtOH/water (85:15 v/v), 50 °C): Form II
XRPD ([3]; MIBK, 5 °C): Form II
XRPD ([3]; MIBK, 50 °C): Form II
XRPD ([3]; Toluene, 50 °C): Form II
XRPD ([3]; acetonitrile, 5 °C): Form II
XRPD ([3]; acetonitrile, 50 °C): Form II
